Eight compounds from ChEMBL document CHEMBL5137126, “Alliacane-Type Secondary Metabolites from Submerged Cultures of the Basidiomycete Clitocybe nebularis” (J Nat Prod, 2022) can be followed below.

The subject of one data set is L929. Description: Cytotoxicity against mouse L929 cells assessed as inhibition of cell growth at 0.0006 to 0.037 ug/ml incubated for 5 days by MTT assay. The data set is classed as toxicity, cell-based. The note with it: l929, 120 h, dose 0.0006-0.037 µg/ml, time 5 day. On the technique in general: Formazan colour is commonly taken as a measure of viable cells.
The test system of a further data set is Bacillus subtilis. Description: Antibacterial activity against Bacillus subtilis DSM 10 assessed as inhibition of bacterial growth incubated overnight by serial dilution method. The data set is classed as functional.
Data set [1] has as its system Schizosaccharomyces pombe. Description: Antifungal activity against Schizosaccharomyces pombe DSM70572 assessed as inhibition of fungal growth incubated for 48 hrs by serial dilution method. The class given is functional.
Another data set deals with Rhodotorula glutinis. Description: Antifungal activity against Rhodotorula glutinis DSM10134 assessed as inhibition of fungal growth incubated for 48 hrs by serial dilution method. The data set is classed as functional.
The subject of a further data set is Mucor hiemalis. Description: Antifungal activity against Mucor hiemalis DSM2656 assessed as inhibition of fungal growth incubated overnight by serial dilution method. The class given is functional.
The next data set relates to Wickerhamomyces anomalus. Description: Antifungal activity against Pichia anomala DSM6766 assessed as inhibition of fungal growth incubated overnight by serial dilution method. The class given is functional.
The next data set has as its system KB 3-1. Description: Cytotoxicity against human KB 3-1 cells assessed as inhibition of cell growth incubated for 5 days by MTT assay. The data set is classed as functional, cell-based. The note with it: KB 3-1, 120 h.
Another data set has as its system Candida albicans. Description: Antifungal activity against Candida albicans DSM1665 assessed as inhibition of fungal growth incubated overnight by serial dilution method. The data set is classed as functional.
The nature of data set [2]: Cytotoxicity against mouse L929 cells assessed as inhibition of cell growth incubated for 5 days by MTT assay. The class given is toxicity, cell-based.
For a further data set, the system named is PC-3. Description: Cytotoxicity against human PC-3 cells assessed as inhibition of cell growth incubated for 5 days by MTT assay. The class given is functional, cell-based. Conditions: PC-3, 120 h.
In the next data set the test system is MCF7. Description: Cytotoxicity against human MCF7 cells assessed as inhibition of cell growth incubated for 5 days by MTT assay. The class given is functional, cell-based. Conditions: MCF7, 120 h.
For the next data set, the system named is A-431. Description: Cytotoxicity against human A-431 cells assessed as inhibition of cell growth incubated for 5 days by MTT assay. The note with it: A-431, 120 h. The class given is functional, cell-based.
The subject of another data set is A549. Description: Cytotoxicity against human A549 cells assessed as inhibition of cell growth incubated for 5 days by MTT assay. The data set is classed as functional, cell-based. The note with it: A549, 120 h.
The test system of another data set is SK-OV-3. Description: Cytotoxicity against human SK-OV-3 cells assessed as inhibition of cell growth incubated for 5 days by MTT assay. The class given is functional, cell-based. The note with it: SK-OV-3, 120 h.

≈ marks a conversion by molar mass, not a printed value.

In general, MIC refers to the smallest concentration in the dilution series that meets the test's criterion for growth inhibition. Broadly, the IC50 is the concentration that inhibits the measured activity by half.

With `C[C@@H]1C(=O)c2occ(CO)c2[C@]2(O)CC(C)(C)C[C@H]12`, in the data set on L929, the Activity entry is recorded as “Non-Toxic”.
Still for that read-out and setting: under `C=C(C(=O)O)C1=C2CC(C)(C)C[C@@H]2[C@H](C)CC1=O` stands “Non-Toxic”.
On to `CN(C)[C@@H]1C(O)=C(C(N)=O)C(=O)[C@@]2(O)C(O)=C3C(=O)c4c(O)cccc4[C@@](C)(O)[C@H]3[C@H](O)[C@@H]12` [OXYTETRACYCLINE], for which the MIC in the data set on Bacillus subtilis turned out to be 9.2 µg/mL (≈ 20 µM).
For the compound NYSTATIN, the MIC in [1] amounted to 4.2 µg/mL; in the data set with Rhodotorula glutinis it was 1 µg/mL; in the data set on Mucor hiemalis, 9.2 µg/mL; in the data set with Wickerhamomyces anomalus, 4.6 µg/mL.
As to `Cc1cc2[nH]cc(C=O)c2c2c1CC(C)(C)C2`, the MIC in the data set with Bacillus subtilis stood at 66.6 µg/mL (≈ 293 µM); in data set [1], 33.3 µg/mL (≈ 146 µM); with Rhodotorula glutinis it was 4.2 µg/mL (≈ 18.5 µM); with Mucor hiemalis it was 16.6 µg/mL (≈ 73 µM); in the data set with Candida albicans, 66.6 µg/mL (≈ 293 µM); in the data set on Wickerhamomyces anomalus (Hansenula anomala) it was 33.3 µg/mL (≈ 146 µM). Further, in the data set with KB 3-1, the IC50 was 21 µM. Also, the IC50 at 5 days in data set [2] is 41 µM.
Turning to `C[C@@H]1C(=O)c2[nH]cc(CO)c2C2=CC(C)(C)C[C@@H]21`, the MIC with Rhodotorula glutinis turned out to be 66.6 µg/mL (≈ 271 µM). In addition, the IC50 in the data set on KB 3-1 came to 47 µM. For the same compound, in [2], the IC50 at 5 days stood at 68 µM.
In the case of `C/C(=C\c1csc(C)n1)[C@H]1C[C@H]2O[C@@]2(C)CCC[C@H](C)[C@@H](O)[C@@H](C)C(=O)C(C)(C)[C@H](O)CC(=O)O1`, the IC50 in the data set with KB 3-1 worked out at 0.0028 µM; in the data set with PC-3 it was 0.003 µM; in the data set with MCF7 it was 0.0027 µM; in the data set on A-431, 0.0031 µM; in the data set on A549, 0.0034 µM; with SK-OV-3 it was 0.0075 µM. Moreover, the IC50 at 5 days in data set [2] was determined as 0.001 µM.
Regarding `C=C(C(=O)O)[C@]12O[C@]13CC(C)(C)C[C@@H]3[C@H](C)[C@H](O)C2=O`, the IC50 in the data set with KB 3-1 amounted to 18 µM; in the data set on PC-3, 36 µM; in the data set on MCF7, 8 µM; in the data set with A-431 it was 7 µM; with A549, 53 µM; in the data set on SK-OV-3, 20 µM. The IC50 at 5 days in data set [2] stood at 22 µM.
